Data published in publication PMC11714206, “Massively Parallel Screening of Toll/Interleukin‐1 Receptor (TIR)‐Derived Peptides Reveals Multiple Toll‐Like Receptors (TLRs)‐Targeting Immunomodulatory Peptides” (Advanced Science, 2024).

Target: T1, MyD88^TIR (Homo sapiens, UniProt Q99836)
T1 construct: MyD88 (residues 148–296); 6xHis; made in house; host or cells: E. coli BL21 (DE3)
Test: T‐Surf phage library (P8 and P3) selection against MyD88^TIR, four rounds, NGS read counts
Assay type: binding
Conditions: for P8_MyD88 Rank (after) / P8_MyD88 Rank (before): P8 library; for P3_MyD88 Rank (after) / P3_MyD88 Rank (before): P3 library; for Population: 4th round of selection against MyD88 TIR, share of NGS reads
Method: T‐Surf libraries were screened against the immobilized TIR domains of two major human TLR adaptor proteins, MAL^TIR and MyD88^TIR, allowing cross‐species selection of TIR‐binding motifs with 190 946 TIR‐derived peptides in a single binding assay (Scheme 1). Enriched phage pools from the fourth round of selection were analyzed using NGS after barcoding the peptide‐coding regions of the phage pools.
Phage display screening was performed by coating two wells of a 96‐well plate (Maxisorp, Thermo Fisher Scientific) with 100 µL of 5 µg mL^−1 TIR domains overnight; then, the coated wells were blocked with 200 µL of blocking buffer (0.2% BSA in PBS) and set aside for 1 h at 4 °C with gentle shaking. Next, 100 µL of the phage library was added to the wells and incubated for 1 h at room temperature (RT; 20 – 22 °C) with gentle shaking. The plate was washed four times with PBS containing 0.5% Tween‐20; the bound phages were eluted by adding 100 µL of 100 mM HCl to each well. The elute was neutralized with 10 µL of 1.0 M Tris‐HCl (pH 11.0). E. coli TG1 cells were grown to the log phase (A600 = ≈0.6), and 1 mL of the culture was incubated with 100 µL of the eluted phages for 30 min at 37 °C, with shaking at 200 rpm. Next, 1 µL of M13KO7 helper phages was added, followed by incubation for 45 min at 37 °C, with shaking. Subsequently, the cells were transferred to 25 mL of 2× yeast extract tryptone/carbenicillin/kanamycin medium and incubated overnight at 37 °C with shaking at 200 rpm. The amplified phages were precipitated with 20% PEG‐8000/2.5 M NaCl to be used for the next round of selection.
The naïve T‐Surf libraries in P8 and P3 and the enriched phage pools after four rounds were barcoded for NGS as previously described.^[ [59] ^] Briefly, 5 µL of the phage pool was used as a template for 20 cycles of a 50 µL PCR reaction using […] each of forward and reverse barcoded primers and PrimeSTAR Max DNA Polymerase. The PCR products were purified using Expin Gel SV (GeneAll). The NGS samples were quantified using qPCR, following the qPCR Quantification Protocol Guide (KAPA Library Quantification kits for Illumina Sequencing Platform), and qualified using the TapeStation High Sensitivity D1000 ScreenTape (Agilent Technologies). The indexed libraries were further sequenced by Macrogen (Seoul, Republic of Korea) using the NovaSeq platform (Illumina) with 100 bp paired‐end reads. The reads were demultiplexed by barcodes and filtered for an average Phred quality score of at least 30, followed by trimming the flanking consensus sequences using Cutadapt (version 2.3). Peptide sequence populations were analyzed according to the read counts.

[1] = 4R selection against MyD88, rank after grouping
[2] = 4R selection against MyD88, rank before grouping
[3] = selection against MyD88, rank after grouping
[4] = selection against MyD88, rank before grouping
[5] = P3_MyD88: rank by count after grouping
[6] = P3_MyD88: rank by count before grouping
[7] = P8_MyD88: rank by count after grouping
[8] = P8_MyD88: rank by count before grouping
[9] = P8_MyD88 pool: P8 T-Surf phage library
[10] = P8_MyD88: rank by NGS read count after grouping
[11] = P8_MyD88: rank by NGS read count before grouping
[12] = selection against MyD88 TIR, rank by count after grouping
[13] = selection against MyD88 TIR, rank by count before grouping
[14] = P3_MyD88 pool: P3 T-Surf phage library
[15] = selection against MyD88, rank by count after grouping
[16] = selection against MyD88, rank by count before grouping

T1 sequence (Q99836 148-296): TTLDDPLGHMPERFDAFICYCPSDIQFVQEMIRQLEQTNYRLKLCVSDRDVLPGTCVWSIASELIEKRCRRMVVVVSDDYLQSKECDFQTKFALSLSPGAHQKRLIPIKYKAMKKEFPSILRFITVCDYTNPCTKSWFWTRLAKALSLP

## DYASSWWALDELLRILY
[1]
  P8_MyD88 Rank (after): 650
[2]
  P8_MyD88 Rank (before): 2504

## NQWRFGSKVDAWKAAL
[3]
  P3_MyD88 Rank (after): 577
[4]
  P3_MyD88 Rank (before): 3470

## LKGGDSYFWSKQPYAL
[5]
  Rank (after): 385
[6]
  Rank (before): 2529

## DFLLTILEAMKTKNQL
[7]
  Rank (after): 148
[8]
  Rank (before): 159
[9]
  Population: 0.00925%

## NLSGWHILDGFLFDEF
[7]
  Rank (after): 125
[8]
  Rank (before): 134
[9]
  Population: 0.0131%

## YTALTIAAFIPFVIM
[3]
  P3_MyD88 Rank (after): 574
[4]
  P3_MyD88 Rank (before): 1647

## NPADLDWFYERLVSLF
[10]
  Rank (after): 939
[11]
  Rank (before): 3878

## YAFTGHLHRYLVQRL
[5]
  Rank (after): 134
[6]
  Rank (before): 834

## IDDDHLTYLVRLLYSLHVTE
[10]
  Rank (after): 895
[11]
  Rank (before): 3629

## LKWGDPAYRLALHYRDFN
[3]
  P3_MyD88 Rank (after): 500
[4]
  P3_MyD88 Rank (before): 2445

## DLQDLDWFYERLVSLL
[12]
  P8_MyD88 Rank (after): 206
[13]
  P8_MyD88 Rank (before): 2595

## DIEYIHLFWDRLLYSL
[3]
  P8_MyD88 Rank (after): 526
[4]
  P8_MyD88 Rank (before): 3060

## LGYHWKEWEHFVGIED
[10]
  Rank (after): 1028
[11]
  Rank (before): 3310

## YAFTGHLHRYLVQRAA
[14]
  Population: 0.0032%

## SSRRERLWRLLELSKK
[5]
  Rank (after): 424
[6]
  Rank (before): 3274

## ELDGDFGRNLWDLWRL
[12]
  P8_MyD88 Rank (after): 249
[13]
  P8_MyD88 Rank (before): 477

## SEMRVVEDGSVSPLEM
[3]
  P3_MyD88 Rank (after): 495
[4]
  P3_MyD88 Rank (before): 3071

## YAFTGHLHRYLVPRGL
[12]
  P3_MyD88 Rank (after): 248
[13]
  P3_MyD88 Rank (before): 1503

## NQWRNALTAAANLSGEFG
[1]
  P3_MyD88 Rank (after): 604
[2]
  P3_MyD88 Rank (before): 3505

## LKWEGPYFWRKMRYAL
[5]
  Rank (after): 477
[6]
  Rank (before): 2457

## NQWRNALTAAANLV
[14]
  Population: 0.00378%

## PQEREWFYERLVSLIL
[10]
  Rank (after): 991
[11]
  Rank (before): 3499

## YQLVFVHFWMFDGRTA
[3]
  P8_MyD88 Rank (after): 518
[4]
  P8_MyD88 Rank (before): 2106

## YLKWGSPWFWDRLRFGPIGQ
[3]
  P3_MyD88 Rank (after): 568
[4]
  P3_MyD88 Rank (before): 1571

## DPQDLQWFYERLVSLMASGI
[3]
  P8_MyD88 Rank (after): 494
[4]
  P8_MyD88 Rank (before): 2920

## DPQGLDWYYVRLVSLL
[10]
  Rank (after): 926
[11]
  Rank (before): 2666

## GTFIDYLYHRLMEEGI
[7]
  Rank (after): 107
[8]
  Rank (before): 113
[9]
  Population: 0.02%

## DPQDLDWFWVRLIEAL
[3]
  P8_MyD88 Rank (after): 493
[4]
  P8_MyD88 Rank (before): 2746

## DPQDLNGFMNVCLAR
[3]
  P8_MyD88 Rank (after): 488
[4]
  P8_MyD88 Rank (before): 2947

## LLAHEISKNMKIFATI
[3]
  P3_MyD88 Rank (after): 523
[4]
  P3_MyD88 Rank (before): 2262

## DFLKWDNEAIMIKKIA
[10]
  Rank (after): 993
[11]
  Rank (before): 2369

## SLRKNVVSNLLEEFKR
[3]
  P3_MyD88 Rank (after): 524
[4]
  P3_MyD88 Rank (before): 3079

## VDPSHLRKQSGEFG
[15]
  P3_MyD88 Rank (after): 683
[16]
  P3_MyD88 Rank (before): 1770

## LGYHWIDWEYYVGIEN
[10]
  Rank (after): 992
[11]
  Rank (before): 3275

## TEPADTAFWDALWNKL
[7]
  Rank (after): 188
[8]
  Rank (before): 237

## SENYATSPWALDELVP
[14]
  Population: 0.00437%

## DWVWDYLLQILHARELF
[10]
  Rank (after): 995
[11]
  Rank (before): 2450

## SSFRECLWSLPELSKK
[15]
  P3_MyD88 Rank (after): 699
[16]
  P3_MyD88 Rank (before): 3138

## SWGQSFLKSPLGWLFA
[12]
  P3_MyD88 Rank (after): 272
[13]
  P3_MyD88 Rank (before): 2936

## QYLRWPEDFQDVGWFL
[7]
  Rank (after): 144
[8]
  Rank (before): 161
[9]
  Population: 0.00925%

## DPKDLQWFYERLVSLF
[10]
  Rank (after): 1027
[11]
  Rank (before): 3043

## WDFCEQYGTVLGSSVL
[3]
  P8_MyD88 Rank (after): 555
[4]
  P8_MyD88 Rank (before): 1569

## LKVESWRQAQEKAGKL
[14]
  Population: 0.00349%

## LGYHWIDWEDFVGIEN
[10]
  Rank (after): 919
[11]
  Rank (before): 3280

## LGYQWNEWEYLVGIEE
[3]
  P8_MyD88 Rank (after): 538
[4]
  P8_MyD88 Rank (before): 3327

## YAFTCHLQRYLVQRGV
[5]
  Rank (after): 118
[6]
  Rank (before): 1545

## PQELECIYKRLVSLIL
[10]
  Rank (after): 1011
[11]
  Rank (before): 3504

## LGYHWEYWVYFVGIED
[10]
  Rank (after): 1000
[11]
  Rank (before): 3237

## LGYHWIDWEYYVGTED
[7]
  Rank (after): 440
[8]
  Rank (before): 3301

## NSFREGLWRLVELSKK
[3]
  P3_MyD88 Rank (after): 535
[4]
  P3_MyD88 Rank (before): 3557

## YTALANSGFHTFHDND
[1]
  P3_MyD88 Rank (after): 613
[2]
  P3_MyD88 Rank (before): 1634

## DTKLKKGESIAPELVL
[5]
  Rank (after): 185
[6]
  Rank (before): 972

## SSLREGLWRLLELSKR
[12]
  P3_MyD88 Rank (after): 209
[13]
  P3_MyD88 Rank (before): 3257

## LVAQEISKIKTMLATT
[3]
  P3_MyD88 Rank (after): 561
[4]
  P3_MyD88 Rank (before): 2317

## DPQELEWFYERLVSLF
[7]
  Rank (after): 163
[8]
  Rank (before): 745

## LKEESWRRAQEKAGKL
[3]
  P3_MyD88 Rank (after): 531
[4]
  P3_MyD88 Rank (before): 2536

## YLRADEFWTLEKLLTA
[1]
  P8_MyD88 Rank (after): 609
[2]
  P8_MyD88 Rank (before): 2071

## WALDLEWFYERLFSQM
[1]
  P8_MyD88 Rank (after): 587
[2]
  P8_MyD88 Rank (before): 1517

## DPQDLAWFYASQSSQM
[3]
  P8_MyD88 Rank (after): 500
[4]
  P8_MyD88 Rank (before): 2997

## SWAVDELLQILHARELF
[1]
  P8_MyD88 Rank (after): 625
[2]
  P8_MyD88 Rank (before): 3756

## DPPDLDWCYQRLVNLP
[10]
  Rank (after): 1026
[11]
  Rank (before): 2628

## SENYATSPWRWMNWC
[3]
  P3_MyD88 Rank (after): 541
[4]
  P3_MyD88 Rank (before): 2992

## DPQDLAWVYERLVSPV
[1]
  P8_MyD88 Rank (after): 628
[2]
  P8_MyD88 Rank (before): 2733

## KELVHVWSSKANSRVG
[1]
  P3_MyD88 Rank (after): 651
[2]
  P3_MyD88 Rank (before): 3662
